Measurements as given in patent US20200299783A1 (Board of Regents, The University of Texas System, priority 2019, published 2020).
“Also recorded” adds a separate entry of the source.

Tests used:
[1] = test system: ibrutinib-resistant MCL cell lines Maver-1 and Z-138; experiment: ROS levels by flow cytometry, ibrutinib-resistant MCL cell lines; type: cell-based, human
Protocol: Mitochondria membrane potential, mitochondria mass, ROS, and apoptosis analysis. MCL cells were seeded and cultured overnight before treatment to reach log phase. Respective cell lines were plated at 2×10^6 cells/well in 6-well plates in phenol-red and pyruvate-free DMEM assay medium containing 5 mM glucose (Sigma), 2 mM GlutaMAX (Gibco, ThermoFisher Scientific), and 5% dialyzed FCS (Gibco). Vehicle, IACS-0107059 (20 nM), or (1-5 μM) BPTES was added and replenished every day until the indicated time points. ROS and mitochondria membrane potential were evaluated 24 hours after treatment. […] TMRE dye fluorescence retained in the cells was detected by flow cytometry with excitation and emission of 548/574 nm. Data were analyzed with NovoExpress (ACEA Biosciences, San Diego, Calif., USA) or FlowJo10 (Tree Star, Ashland, Oreg., USA). To measure ROS levels, treated cells were harvested, stained with […] CM-H2DCF-DA (C6827, Molecular Probes, Invitrogen) in PBS for 30 min at 37° C., washed twice with PBS, and analyzed in a flow cytometer (FACS Caliber, BD Biosciences) by recording the green fluorescence of oxidized DCF. The mean fluorescence of 10,000 analyzed cells (corrected for auto fluorescence) was taken as a readout for the intracellular ROS load.

[2] = test system: ibrutinib-resistant Maver-1 MCL cells; experiment: Apoptosis assay (Annexin-V/PI), Maver-1; type: cell-based, human; settings: 72 hours, 20 nM IACS-010759 and/or 5 μM BPTES, FIGS. 5F & 11E
Protocol: (§1) Apoptosis assays. Annexin V-binding assay was used to detect the induction of apoptosis. Cells were seeded in 48-well plates with single agent or combination therapy for various times, or with different concentrations for 48 hours. To quantify the percentages of cells undergoing apoptosis, Annexin V-FITC was used. Briefly, cells were washed twice with cold PBS and then suspended in binding buffer at a concentration of 1×10^6 cells/mL. After incubation, 100 μL of the solution was transferred to a 5-mL tube, to which 5 μL of Annexin V-FITC and 5 μL of PI are added. The tube was gently vortexed and incubated for 15 min at room temperature in dark. At the end of the incubation, 300 μL of binding buffer was added. Flow cytometric analysis was performed immediately with a Novocyte Flow Cytometer (ACEA Biosciences, San Diego, Calif., USA). Data were analyzed with NovoExpress (ACEA Biosciences, San Diego, Calif., USA) or FlowJo10 (Tree Star, Ashland, Oreg., USA).

[3] = test system: ibrutinib-resistant Z-138 MCL cells; experiment: Apoptosis assay (Annexin-V/PI), Z-138; type: cell-based, human; settings: 72 hours, 20 nM IACS-010759 and/or 5 μM BPTES, FIGS. 5F & 11E
Protocol: as §1

[4] = test system: Z-138 and Maver-1 MCL cell lines; experiment: Immunoblotting of cleaved Caspase-7 and PARP; type: cell-based, human; settings: 20 nM IACS-010759 and/or 5 μM BPTES for 72 hours; FIG. 5G
Protocol: Cells were cultured with single agent or combination therapy in the presence or absence of caspase inhibitors. Cells were harvested, washed twice with cold PBS, and lysed with lysis buffer (Cell Signaling, Danvers, Mass., USA). Cell lysates were kept on ice for 30 min and centrifuged at 13,000 g for 10 min at 4° C. For the detection of cytosolic cytochrome c, the Cytosol Fractionation Kit (BioVision, Milpitas, Calif., USA) was utilized to acquire cytosolic fractions according to the manufacturer's instructions. Supernatants were collected, and the protein content of each fraction was determined using a Bio-Rad Bradford assay (Bio-Rad, Hercules, Calif., USA). Samples were boiled in loading buffer and separated by 10% SDS-PAGE. After electrophoresis, the proteins were transferred onto a nitrocellulose membrane (Bio-Rad), which was incubated with blocking solution (5% nonfat dry milk in PBS containing 0.05% Tween-20) for 2 h and immunoblotted with SLC16A1 (Novus, St. Louis, Mo., USA), SLC1A5, BTK, and p16INK4a, and GAPDH (Cell Signaling, Danvers, Mass., USA) antibodies. The membrane was finally visualized by incubating the membrane with a chemiluminescence Western blot kit (Pierce Biotechnology, Rockford, Ill., USA).

[5] = test system: ibrutinib-resistant MCL cell lines (Z-138 and Maver-1); experiment: Cell growth assay, ibrutinib-resistant MCL cell lines; type: cell-based, human
Protocol: (§2) Cells were seeded in triplicate in a 96-well plate with 2×10^5 cells per well and treated with indicated dose of single agent or two compound combination for 24-72 hours. In the last 30 min, 50 μL of CellTiter 96 Aqueous One Solution Reagent were added to the culture wells and incubated at 37° C. in 5% CO2. Light absorbance of formazan was measured at 495 nm on a universal microplate reader equipped with KC4 software (Biotek Instruments, Winooski, Vt., USA).

[6] = test system: ibrutinib-sensitive MCL cell lines (Mino and JeKo-1); experiment: Cell growth assay, ibrutinib-sensitive MCL cell lines; type: cell-based, human; settings: 72-hour incubation, FIG. 5A
Protocol: as §2

ETC complex I = ETC complex I activity in ibrutinib-resistant MCL cell lines; type: cell-based, human; settings: Z-138 and Maver-1; 20 nM, 24 hours; FIGS. 11A & 11B
[7] = test system: ibrutinib-resistant MCL cell lines, Z-138 and Maver-1; experiment: Mitochondria respiration (OCR, Seahorse), ibrutinib-resistant MCL cell lines; type: cell-based, human; settings: 20 nM for 1 h, FIG. 5B
Protocol: (§3) The oxygen consumption rate (OCR) was measured using a Seahorse XF-96 Metabolic Flux Analyzer (Seahorse Bioscience, North Billerica, Mass., USA). Briefly, MCL cells were treated with/without IACS-010759 (20 nM) for 1 h. On the day of analysis, 2-4×10^5 MCL cells/well were adhered to XF 96-well cell culture microplates (Seahorse Biosciences) pre-coated with Cell-Talc (BD Biosciences), by centrifugation at 1,000×g, without brakes for 5 min, then changed to mitochondria stress medium supplemented with 25 mM glucose, 2 mM sodium pyruvate, and 2 mM glutamine (pH 7.4), followed by incubation at 37° C. in a non-CO2 incubator for 1 h. […], FCCP (2 μM), and Rotenone/Antimycin A (0.5 μM), were loaded into drug delivery ports and injected sequentially at the indicated time points. After each injection, 4 time points were recorded with approximately 35 min between each injection. […] over time was normalized to protein content measured by sulforhodamine B (SRB) staining and plotted using Graph-Pad Prism.

[8] = test system: ibrutinib-sensitive MCL cell line, Mino; experiment: Mitochondria respiration (OCR, Seahorse), ibrutinib-sensitive Mino; type: cell-based, human; settings: 20 nM for 1 h, vs control, p=0.0832, FIG. 5B
Protocol: as §3

[9] = test system: ibrutinib-resistant Z-138 and Maver-1 cell lines; experiment: Mitochondria membrane potential (TMRE), ibrutinib-resistant MCL cell lines; type: cell-based, human; settings: 20 nM IACS-010759 and/or 5 μM BPTES for 24 hours; FIGS. 5C & 5D
Protocol: (§4) Mitochondria membrane potential, mitochondria mass, ROS, and apoptosis analysis. MCL cells were seeded and cultured overnight before treatment to reach log phase. Respective cell lines were plated at 2×10^6 cells/well in 6-well plates in phenol-red and pyruvate-free DMEM assay medium containing 5 mM glucose (Sigma), 2 mM GlutaMAX (Gibco, ThermoFisher Scientific), and 5% dialyzed FCS (Gibco). Vehicle, IACS-0107059 (20 nM), or (1-5 μM) BPTES was added and replenished every day until the indicated time points. ROS and mitochondria membrane potential were evaluated 24 hours after treatment. To determine mitochondria membrane potential (Δψm), treated cells were loaded with MitoStatus tetramethylrhodamine, ethyl ester (TMRE) (BD Biosciences) at 37° C. for 15 min and washed with PBS twice to remove residual TMRE. TMRE dye fluorescence retained in the cells was detected by flow cytometry with excitation and emission of 548/574 nm. Data were analyzed with NovoExpress (ACEA Biosciences, San Diego, Calif., USA) or FlowJo10 (Tree Star, Ashland, Oreg., USA).

[10] = test system: ibrutinib-resistant (Maver-1 and Z-138) MCL cell lines; experiment: Intracellular ATP, ibrutinib-resistant MCL cell lines; type: cell-based, human; settings: 20 nM for 24 hours; 0 nM vs 20 nM p<0.0001; FIG. 11C
Protocol: (§5) MCL cell lines were seeded at 1-2×10^6 cells/well in triplicate in six-well plates and incubated overnight. Next, the media were replaced with 3 mL complete RPMI-1640 medium with or without inhibitors. […] and analyzed for their glucose, glutamine and lactate content using the Glucose, Glutamine and Lactate Colorimetric Assay Kits (BioVision), respectively, according to the manufacturer's instructions. Glucose or glutamine consumption was extrapolated by subtracting the measured glucose concentrations in the media from the initial concentrations (11.1 mM glucose; 2 mM glutamine). Intracellular ATP contents from above treated cells was determined using ATP Colorimetric Assay Kit (Biovision) as outlined in the manufacturer's protocol. […]

[11] = test system: ibrutinib-resistant MCL cell lines (Maver-1 and Z-138) versus ibrutinib-sensitive (JeKo-1 and Mino); experiment: Glutamine uptake in MCL cell lines; type: cell-based, human; settings: 20 nM for 24 hours; resistant compared with sensitive cells; FIG. 11D
Protocol: as §5

[12] = test system: ibrutinib-sensitive MCL cell lines; experiment: ROS levels by flow cytometry, ibrutinib-sensitive MCL cell lines; type: cell-based, human; settings: FIG. 5E
Protocol: as §4, with “To determine mitochondria membrane potential (Δψm), treated cells were loaded with MitoStatus tetramethylrhodamine, ethyl ester (TMRE) (BD Biosciences) at 37° C. for 15 min and washed with PBS twice to remove residual TMRE.” left out
To measure ROS levels, treated cells were harvested, stained with […] CM-H2DCF-DA (C6827, Molecular Probes, Invitrogen) in PBS for 30 min at 37° C., washed twice with PBS, and analyzed in a flow cytometer (FACS Caliber, BD Biosciences) by recording the green fluorescence of oxidized DCF. The mean fluorescence of 10,000 analyzed cells (corrected for auto fluorescence) was taken as a readout for the intracellular ROS load.

[13] = test system: ibrutinib-resistant MCL PDX
Protocol: Histopathological analysis. Excised tissues from patients and PDX mice were fixed in 10% formalin solution, processed by standard methods, embedded in paraffin, sectioned at 5 μm, and stained with H&E. For immunohistochemical (IHC) evaluation, the tissues are stained with an antibody against human anti-CD20 (Dako, Glostrup, Denmark), counterstained with Harris hematoxylin and examined by standard light microscopy. Samples were analyzed using an Olympus BX51TF microscope equipped with UPlan FL 40×/0.75 and 20×/0.50 objective lenses (Olympus, Melville, N.Y., USA).

[14] = test system: ibrutinib-resistant high-grade B-cell lymphoma PDX

NOCC(=O)O [AOA, aminooxyacetate]
ROS and energy stress ([1]; 0.5 mM AOA for 24 hours, compared with the sensitive cell lines, FIG. 10B): marked induction of reactive oxygen species (ROS) and energy stress

O=C(Cc1ccccc1)Nc1nnc(CCSCCc2nnc(NC(=O)Cc3ccccc3)s2)s1 [BPTES, bis-2-(5-phenylacetamido-1,3,4-thiadiazol-2-yl)ethyl sulfide]
apoptosis [2]: 25% | apoptosis [3]: 44% | caspase 7 activation and PARP cleavage [4]: induced caspase 7 activation and PARP cleavage

Cc1nc(-c2nc(-c3ccc(OC(F)(F)F)cc3)no2)nn1Cc1cccc(N2CCC(S(C)(=O)=O)CC2)c1 [IACS-010759]
inhibition of proliferation (cell growth inhibition) ([5]; Z-138 and Maver-1, 72-hour incubation, FIG. 5A): dose-dependent manner at nanomolar concentrations | difference in IC50 values between the resistant and sensitive cell lines ([5]; cell growth, 72 h, resistant (Z-138, Maver-1) vs sensitive (Mino, JeKo-1)): approximately 10 fold | inhibition of proliferation (cell growth inhibition) [6]: very little effect | ETC complex I activity (ETC complex I): reduced | OCR (oxygen consumption rate) ([7]; vs DMSO-treated control): reduced the OCR | average reduction of OCR compared with the control ([7]; mixed effects regression model, p<0.0001): 358.9406 (95% CI: 321.1402-396.741) | OCR (oxygen consumption rate) [8]: little effect; also recorded: No significant difference | mitochondrial potential (Δψm, TMRE) [9]: decreased | ATP production (intracellular ATP levels) [10]: decreased | glutamine uptake inhibition [11]: greater glutamine uptake inhibition | ROS production ([1]; Maver-1 and Z-138, IACS-010759 25 nM (text; FIG. 5E legend 20 nM) and/or 5 μM BPTES, 24 hours): induced ROS production | ROS production [12]: not in the -sensitive cell lines | apoptosis [2]: 23% | apoptosis [3]: 42% | caspase 7 activation and PARP cleavage [4]: induced caspase 7 activation and PARP cleavage | toxicities ([13]; 10 mg/kg oral gavage 5 consecutive days/week): No apparent toxicities | body weight vs vehicle control ([13]; 10 mg/kg oral gavage 5 consecutive days/week, p=0.3304, FIG. 6C): not significantly different | tumor growth by tumor volume ([13]; 10 mg/kg oral gavage 5 consecutive days/week, vs vehicle, n=5, p<0.0001, FIG. 6A): completely prevented tumor growth | tumor growth by human β2M levels ([13]; 10 mg/kg oral gavage 5 consecutive days/week, vs vehicle, n=5, p<0.0001, FIG. 6B): completely prevented tumor growth | H&E and anti-CD20 staining of dissected tissue post-treatment ([13]; end of treatment, a small number of CD20+ cells remained, FIG. 6D): repopulation of the tumor area with fatty deposits | body weight vs vehicle ([14]; 10 mg/kg oral gavage 5 consecutive days/week, p=0.1964, FIG. 12C): not significantly different | tumor growth by tumor volume ([14]; IACS-010759 10 mg/kg 5 days/week (p<0.0001 vs vehicle), ibrutinib 50 mg/kg daily (p=0.7227), oral gavage, FIG. 12A): significantly inhibited tumor growth | tumor growth by human (32M levels) ([14]; IACS-010759 10 mg/kg 5 days/week (p=0.0003 vs vehicle), ibrutinib 50 mg/kg daily (p=0.6911), FIG. 12B): significantly inhibited tumor growth | survival benefit ([14]; compared with vehicle- and ibrutinib-treated mice, FIG. 12D): greater than 20 days | survival of the ibrutinib-resistant PDX mice ([14]; n=5, vs vehicle p=0.0035, vs ibrutinib p=0.0035, FIG. 12D): significantly prolonged the survival
